Test results from patent US7074812B2, “Development of muscle mass in a mammal” (Nutraleutical Development Corporation, priority 2002, dated 2006).
Read-outs that look alike come from different tables or passages of the source.

Columns and labels:
[1] = system: healthy male mice; settings: 60 micrograms nicotine/ml drinking water
Excerpt: To study the effects of nicotine in the diet of mice in combination with exercise, 34 mice were divided into two equal groups. The diet of one group of mice was supplemented with nicotine added to the drinking water and the other group had plain water. Both groups received the same chow and water freely.
The experiment was a double-blind investigative study including a total of 34 healthy male mice that were approximately 9 weeks old, weighing approximately 35 grams. The mice were received one week prior to the start of the study to allow for a week of acclimation to the study site and the handlers. Because mice are active when it is dark and sleep when it is light, an automatic lighting system (12 hour dark/12 hour light) was set up for the duration of the study. The dark cycle was from 9 pm to 9 am and the light cycle from 9 am to 9 pm. The mice were subjected to a 3 week weighted exercise regimen on a treadmill wheel.
The 34 mice were divided in 2 groups of 17 mice each. Group 1 (nicotine treatment) received water laced with nicotine containing 60 micrograms nicotine/ml water and 10 mg saccharine tablet or pinch of a sugar substitute powder. The sugar substitute served to mask the bitter taste of nicotine in the water. Group 2 (placebo or control) followed the same weight exercise regimen as the nicotine treatment group. Their drinking water was plain water with the same amount of saccharine or sugar substitute as in Group 1. Each mouse had access to its water ad libitum daily during the study period, regardless of the group. Weekly water consumption was measured.
Mice in both groups were subjected to a weight/exercise regimen in the morning at the end of the dark cycle around 8:00 am. Weights were affixed to each animal at the beginning of the exercise. The weights were approximately 10% of body weight measured at Day -1 of the study, and adjusted based on body weight, measured weekly. The mice were exercised for 15 minutes per day or until exhaustion, 5 days a week for 3 weeks on a Mouse Forced Exercise Walking/Running Wheel System (Model 80800, Lafayette Instrument, North Lafayette, Ind. 47903). The largest part of the upper hind muscle of the mice was measured with a dial caliper every week. Two measurements on each leg were taken and the average was calculated.

[2] = system: males aged 30–59 years old
Experimental: In order to determine the effects of a nicotine supplement on human subjects, a double blind placebo controlled study was conducted. The study tested 32 males aged 30–59 years old. Each participant needed to have been weight-lifting and exercising on a consistent basis for at least one full year prior to the study. The study required each of the 32 males to remain consistent with their current exercise program (minimum of 3×'s per week), required not to add any new exercises to their current program, not add any new supplements to their diet during the six week study and to take the nicotine supplement 30 minutes prior to exercise. The nicotine supplement was 3 micrograms of nicotine in a standard 300 mg capsule containing polyethylene gycol (PEG) as a vehicle. The placebo capsule was identical in all aspects but contained no active (nicotine) ingredients.
The 32 males were subdivided into 4 groups, 2 placebo groups (8 took 1 capsule and 8 took 2 capsules with no active nicotine ingredients prior to exercise). In the other two groups (active), 8 subjects took 3 micrograms of nicotine and 8 took 6 micrograms of nicotine prior to exercise. The individuals were tested in the beginning and conclusion of the study in the following areas: (1) overall body fat/lean muscle ratio (ELG impedance test was used, which is 98% accurate compared to skinfold testing); (2) biceps; (3) upper leg muscle mass; and (4) 10 exercise repetition maximum, for both upper and lower body strength test (bench press and leg press). Participant workouts were logged by each individual in their own notebooks, to ensure consistency and compliance

[3] = 1 capsule (3 micrograms of nicotine), n = 8
[4] = 2 capsules (6 micrograms of nicotine), n = 8
[5] = Nicotine 1 or 2 capsules pooled, n = 16
[6] = individual subjects, six-week study

CN1CCCC1c1cccnc1 (stereo not shown) [Nicotine, nicotine]
increase in leg diameter versus control group, overall ([1]; 3 weeks): significantly greater increase in leg diameter | average increase of leg diameter, average of day 7, 14 and 21 compared with day 0 ([1]; control 0.5 mm): 1.7 mm | average increase of leg diameter compared to day 0 ([1]; day 7, control 0.6 mm): 1.6 mm | average increase of leg diameter compared to day 0 ([1]; day 14, control 2.1 mm): 2.8 mm | increase of leg diameter compared to day 0 ([1]; day 21, control 1.1 mm decrease): 0.7 mm | Upper-body Strength, Change Over Study (Post-Pre), Median (Range) ([2]; 1 capsule (3 micrograms of nicotine) prior to exercise, n = 8, bench press 10 repetition maximum): 10.00 (5.00, 20.00) | Bicep Circumference, Change Over Study (Post-Pre), Median (Range) [2, 3]: 0.45 (−0.20, 2.00) cm | Body Fat %, Change Over Study (Post-Pre), Median (Range) [2, 3]: −0.65 (−1.90, 0.70) % | Body Mass Index, Change Over Study (Post-Pre), Median (Range) [2, 3]: −0.13 (−0.79, 0.45) | Lean Mass %, Change Over Study (Post-Pre), Median (Range) [2, 3]: 0.65 (−0.70, 1.90) % | Quadricep Circumference, Change Over Study (Post-Pre), Median (Range) [2, 3]: 0.00 (−2.00, 2.50) cm | Weight, Change Over Study (Post-Pre), Median (Range) [2, 3]: −1.00 (−6.00, 3.00) lbs | Lower-body Strength, Change Over Study (Post-Pre), Median (Range) ([2]; 1 capsule (3 micrograms of nicotine), n = 8, leg press 10 repetition maximum): 65.00 (15.00, 90.00) | Upper-body Strength, Change Over Study (Post-Pre), Median (Range) ([2]; 2 capsules (6 micrograms of nicotine) prior to exercise, n = 8, bench press 10 repetition maximum): 10.00 (5.00, 20.00) | Bicep Circumference, Change Over Study (Post-Pre), Median (Range) [2, 4]: 0.63 (−1.50, 1.70) cm | Body Fat %, Change Over Study (Post-Pre), Median (Range) [2, 4]: −1.05 (−5.90, 0.10) % | Body Mass Index, Change Over Study (Post-Pre), Median (Range) [2, 4]: −0.08 (−1.22, 0.94) | Lean Mass %, Change Over Study (Post-Pre), Median (Range) [2, 4]: 1.05 (−0.10, 5.90) % | Quadricep Circumference, Change Over Study (Post-Pre), Median (Range) [2, 4]: 0.00 (−2.00, 3.00) cm | Weight, Change Over Study (Post-Pre), Median (Range) [2, 4]: −0.50 (−8.00, 6.75) lbs | Lower-body Strength, Change Over Study (Post-Pre), Median (Range) ([2]; 2 capsules (6 micrograms of nicotine), n = 8, leg press 10 repetition maximum): 80.00 (20.00, 320.00) | Bicep Circumference, Change Over Study (Post-Pre), Median (Range) [2, 5]: 0.45 (−1.50, 2.00) cm | Body Fat %, Change Over Study (Post-Pre), Median (Range) [2, 5]: −0.95 (−5.90, 0.70) % | Body Mass Index, Change Over Study (Post-Pre), Median (Range) [2, 5]: −0.11 (−1.22, 0.94) | Lean Mass %, Change Over Study (Post-Pre), Median (Range) [2, 5]: 0.95 (−0.70, 5.90) % | Lower-body Strength, Change Over Study (Post-Pre), Median (Range) [2, 5]: 70.00 (15.00, 320.00) | Quadricep Circumference, Change Over Study (Post-Pre), Median (Range) [2, 5]: 0.00 (−2.00, 3.00) cm | Upper-body Strength, Change Over Study (Post-Pre), Median (Range) [2, 5]: 10.00 (5.00, 20.00) | Weight, Change Over Study (Post-Pre), Median (Range) [2, 5]: −0.75 (−8.00, 6.75) lbs | subjects who noted an increase in overall endurance, leg strength and a strong thermogenic effect ([2]; active (nicotine) group, six-week study): 13 of the 16 | individuals who made significant changes in either body, strength levels or muscle mass or in all three test areas ([2]; active (nicotine) group, placebo five of the sixteen): Fifteen of the sixteen | change of overall body fat, one subject ([2]; individual subject, six-week study): 32% | increase of leg strength, five subjects [2, 6]: over 25% | increase of leg strength, two of the five subjects [2, 6]: 40%
